In PubChem BioAssay AID1259407 (Chemical Carcinogenesis Research Information System (CCRIS), 2018):
The source made the active and inactive calls. No rule for the calls is given here.

Tested on: CCRIS mutagenicity, Ames/micronucleus/aberration tests
Experiment: CCRIS mutagenicity studies
[1] = Test System: AMES SALMONELLA TYPHIMURIUM, Strain/Indicator: TA98, Metabolic Activation: HAMSTER, LIVER, S-9, AROCLOR 1254, Method: STANDARD PLATE
[2] = Test System: AMES SALMONELLA TYPHIMURIUM, Strain/Indicator: TA98, Metabolic Activation: NONE, Method: STANDARD PLATE
[3] = Test System: AMES SALMONELLA TYPHIMURIUM, Strain/Indicator: TA98, Metabolic Activation: RAT, LIVER, S-9, AROCLOR 1254, Method: STANDARD PLATE
[4] = Test System: AMES SALMONELLA TYPHIMURIUM, Strain/Indicator: TA100, Metabolic Activation: HAMSTER, LIVER, S-9, AROCLOR 1254, Method: STANDARD PLATE
[5] = Test System: AMES SALMONELLA TYPHIMURIUM, Strain/Indicator: TA100, Metabolic Activation: NONE, Method: STANDARD PLATE
[6] = Test System: AMES SALMONELLA TYPHIMURIUM, Strain/Indicator: TA100, Metabolic Activation: RAT, LIVER, S-9, AROCLOR 1254, Method: STANDARD PLATE
[7] = Test System: AMES SALMONELLA TYPHIMURIUM, Strain/Indicator: TA1535, Metabolic Activation: HAMSTER, LIVER, S-9, AROCLOR 1254, Method: STANDARD PLATE
[8] = Test System: AMES SALMONELLA TYPHIMURIUM, Strain/Indicator: TA1535, Metabolic Activation: NONE, Method: STANDARD PLATE
[9] = Test System: AMES SALMONELLA TYPHIMURIUM, Strain/Indicator: TA1535, Metabolic Activation: RAT, LIVER, S-9, AROCLOR 1254, Method: STANDARD PLATE
[10] = Test System: AMES SALMONELLA TYPHIMURIUM, Strain/Indicator: TA1537, Metabolic Activation: HAMSTER, LIVER, S-9, AROCLOR 1254, Method: STANDARD PLATE
[11] = Test System: AMES SALMONELLA TYPHIMURIUM, Strain/Indicator: TA1537, Metabolic Activation: NONE, Method: STANDARD PLATE
[12] = Test System: AMES SALMONELLA TYPHIMURIUM, Strain/Indicator: TA1537, Metabolic Activation: RAT, LIVER, S-9, AROCLOR 1254, Method: STANDARD PLATE
[13] = Test System: AMES SALMONELLA TYPHIMURIUM, Strain/Indicator: TA102, Metabolic Activation: NONE, Method: STANDARD PLATE
[14] = Test System: AMES SALMONELLA TYPHIMURIUM, Strain/Indicator: TA102, Metabolic Activation: RAT, LIVER, S-9, AROCLOR 1254, Method: STANDARD PLATE

CC(=O)O[C@@H]1[C@@H](O)[C@H](O[C@H]2[C@H](OC(=O)[C@H]3CC[C@@H]4[C@H](C3)O[C@@]3(C[C@H](OC(=O)/C=C/c5ccccc5)[C@H](C)CO3)[C@]43CO3)O[C@H](C)[C@@H](O)[C@@H]2OC(C)=O)O[C@H](C)[C@H]1O
mutagenic call [1]: inactive; negative
mutagenic call [2]: inactive; negative
mutagenic call [3]: inactive; negative
mutagenic call [4]: inactive; negative
mutagenic call [5]: inactive; negative
mutagenic call [6]: inactive; negative
mutagenic call [7]: inactive; negative
mutagenic call [8]: inactive; negative
mutagenic call [9]: inactive; negative
mutagenic call [10]: inactive; negative
mutagenic call [11]: inactive; negative
mutagenic call [12]: inactive; negative

COc1ccc(-c2oc3ccccc3c(=O)c2N)cc1N
mutagenic call (Test System: AMES SALMONELLA TYPHIMURIUM, Strain/Indicator: TA100, Metabolic Activation: RAT LIVER S-9, AROCLOR 1254, Method: STANDARD PLATE): active; positive
mutagenic call (Test System: AMES SALMONELLA TYPHIMURIUM, Strain/Indicator: YG1042, Metabolic Activation: RAT LIVER S-9, AROCLOR 1254, Method: STANDARD PLATE): active; positive

CCO[Si](OCC)(OCC)OCC
mutagenic call [1]: inactive; negative
mutagenic call [2]: inactive; negative
mutagenic call [3]: inactive; negative
mutagenic call [4]: inactive; negative
mutagenic call [5]: inactive; negative
mutagenic call [6]: inactive; negative
mutagenic call (Test System: AMES SALMONELLA TYPHIMURIUM, Strain/Indicator: TA102, Metabolic Activation: HAMSTER, LIVER, S-9, AROCLOR 1254, Method: STANDARD PLATE): inactive; negative
mutagenic call [13]: inactive; negative
mutagenic call [14]: inactive; negative
mutagenic call [7]: inactive; negative
mutagenic call [8]: inactive; negative
mutagenic call [9]: inactive; negative
mutagenic call [10]: inactive; negative
mutagenic call [11]: inactive; negative
mutagenic call [12]: inactive; negative
mutagenic call (Test System: MOUSE LYMPHOMA, Strain/Indicator: L5178Y (TK+/TK-), Metabolic Activation: NONE, Method: SUSPENSION/PLATE): inactive; negative. reevaluation of results: negative
mutagenic call (Test System: Mouse lymphoma, Strain/Indicator: L5178 Y (tk+/tk-), Metabolic Activation: Rat, Liver, S-9, Aroclor 1254, Method: Suspension/plate): inactive; negative

CC(=O)c1oc([N+](=O)[O-])c(-c2ccccc2)c1-c1ccccc1
mutagenic call (Test System: AMES SALMONELLA TYPHIMURIUM, Strain/Indicator: TA98(NR), Metabolic Activation: NONE, Method: STANDARD PLATE): inactive; negative
mutagenic call [2]: active; positive
mutagenic call (Test System: AMES SALMONELLA TYPHIMURIUM, Strain/Indicator: TA100(NR), Metabolic Activation: NONE, Method: STANDARD PLATE): inactive; negative
mutagenic call [5]: active; positive

NNc1ccc([N+](=O)[O-])cc1
mutagenic call (Test System: AMES SALMONELLA TYPHIMURIUM, Strain/Indicator: TA98, Metabolic Activation: NONE, Method: PREINCUBATION): active; positive
mutagenic call (Test System: AMES SALMONELLA TYPHIMURIUM, Strain/Indicator: TA98, Metabolic Activation: RAT, LIVER, S-9, KANECHLOR 500, Method: PREINCUBATION): active; positive
mutagenic call (Test System: AMES SALMONELLA TYPHIMURIUM, Strain/Indicator: TA100, Metabolic Activation: NONE, Method: PREINCUBATION): active; positive
mutagenic call (Test System: AMES SALMONELLA TYPHIMURIUM, Strain/Indicator: TA100, Metabolic Activation: RAT, LIVER, S-9, KANECHLOR 500, Method: PREINCUBATION): active; positive

CC(=O)C[C@@H]1CCCCCC(=O)O[C@H](CC(C)=O)CCC(=O)CCC(=O)O1
mutagenic call (Test System: CHINESE HAMSTER V-79, Strain/Indicator: V-79 (HPRT)/6-THIOGUANINE, Metabolic Activation: NONE): active; positive

CCCN(CO)N=O
mutagenic call (Test System: CHINESE HAMSTER V-79, Strain/Indicator: V-79/OUABAIN, Metabolic Activation: NONE): active; positive

CNCCCC(=O)O
mutagenic call (Test System: AMES SALMONELLA TYPHIMURIUM, Strain/Indicator: TA97, Metabolic Activation: NONE, Method: STANDARD PLATE): inactive; negative
mutagenic call (Test System: AMES SALMONELLA TYPHIMURIUM, Strain/Indicator: TA97, Metabolic Activation: RAT, LIVER, S-9, AROCLOR 1254, Method: STANDARD PLATE): inactive; negative
mutagenic call [2]: inactive; negative
mutagenic call (Test System: AMES SALMONELLA TYPHIMURIUM, Strain/Indicator: TA98, Metabolic Activation: RAT, LIVER, S-9, AROCLOR 1254, Method: PREINCUBATION): inactive; negative
mutagenic call [3]: inactive; negative
mutagenic call [5]: inactive; negative
mutagenic call [6]: inactive; negative
mutagenic call [13]: inactive; negative
mutagenic call [14]: inactive; negative
mutagenic call (Test System: AMES SALMONELLA TYPHIMURIUM, Strain/Indicator: TA104, Metabolic Activation: NONE, Method: STANDARD PLATE): inactive; negative
mutagenic call (Test System: AMES SALMONELLA TYPHIMURIUM, Strain/Indicator: TA104, Metabolic Activation: RAT, LIVER, S-9, AROCLOR 1254, Method: PREINCUBATION): inactive; negative
mutagenic call (Test System: AMES SALMONELLA TYPHIMURIUM, Strain/Indicator: TA104, Metabolic Activation: RAT, LIVER, S-9, AROCLOR 1254, Method: STANDARD PLATE): inactive; negative
mutagenic call (Test System: AMES SALMONELLA TYPHIMURIUM, Strain/Indicator: TA2638, Metabolic Activation: NONE, Method: STANDARD PLATE): inactive; negative
mutagenic call (Test System: AMES SALMONELLA TYPHIMURIUM, Strain/Indicator: TA2638, Metabolic Activation: RAT, LIVER, S-9, AROCLOR 1254, Method: STANDARD PLATE): inactive; negative
mutagenic call (Test System: AMES SALMONELLA TYPHIMURIUM, Strain/Indicator: UTH8413, Metabolic Activation: NONE, Method: STANDARD PLATE): inactive; negative
mutagenic call (Test System: AMES SALMONELLA TYPHIMURIUM, Strain/Indicator: UTH8413, Metabolic Activation: RAT, LIVER, S-9, AROCLOR 1254, Method: STANDARD PLATE): inactive; negative
mutagenic call (Test System: AMES SALMONELLA TYPHIMURIUM, Strain/Indicator: UTH8414, Metabolic Activation: NONE, Method: STANDARD PLATE): inactive; negative
mutagenic call (Test System: AMES SALMONELLA TYPHIMURIUM, Strain/Indicator: UTH8414, Metabolic Activation: RAT, LIVER, S-9, AROCLOR 1254, Method: STANDARD PLATE): inactive; negative

CC(C)CCC[C@@H](C)[C@H]1CC[C@H]2[C@@H]3CC4([C@H]5C[C@@H](Br)CC[C@]5(C)[C@H]3CC[C@]12C)S(=O)(=O)CCS4(=O)=O
mutagenic call (Test System: AMES SALMONELLA TYPHIMURIUM, Strain/Indicator: TA97A, Metabolic Activation: NONE): inactive; negative
mutagenic call (Test System: AMES SALMONELLA TYPHIMURIUM, Strain/Indicator: TA97A, Metabolic Activation: RAT, LIVER, S-9, AROCLOR 1254): active; positive
mutagenic call (Test System: AMES SALMONELLA TYPHIMURIUM, Strain/Indicator: TA98, Metabolic Activation: NONE): inactive; negative
mutagenic call (Test System: AMES SALMONELLA TYPHIMURIUM, Strain/Indicator: TA100, Metabolic Activation: NONE): inactive; negative
mutagenic call (Test System: AMES SALMONELLA TYPHIMURIUM, Strain/Indicator: TA100, Metabolic Activation: RAT, LIVER, S-9, AROCLOR 1254): inactive; negative
mutagenic call (Test System: AMES SALMONELLA TYPHIMURIUM, Strain/Indicator: TA102, Metabolic Activation: NONE): active; positive
mutagenic call (Test System: AMES SALMONELLA TYPHIMURIUM, Strain/Indicator: TA102, Metabolic Activation: RAT, LIVER, S-9, AROCLOR 1254): active; positive
mutagenic call (Test System: AMES SALMONELLA TYPHIMURIUM, Strain/Indicator: TA104, Metabolic Activation: NONE): active; positive
mutagenic call (Test System: AMES SALMONELLA TYPHIMURIUM, Strain/Indicator: TA104, Metabolic Activation: RAT, LIVER, S-9, AROCLOR 1254): active; positive
